Laboratory results: ChEMBL document CHEMBL3233010, “Design, synthesis and biological evaluation of novel 6-alkenylamides substituted of 4-anilinothieno[2,3-d]pyrimidines as irreversible epidermal growth factor receptor inhibitors” (Bioorg Med Chem, 2014)
pIC50: −log10 of the molar value. Calls of active or inactive are those of the source. No cut-off for these calls is given here.

Assays:
[1] = tested on: NCI-H1975; experiment: Antiproliferative activity against gefitinib-resistant human NCI-H1975 cells assessed as growth inhibition after 72 hrs by SRB assay; type: functional, cell-based; conditions: NCI-H1975, 72 h
[2] = molecular target: T1, Epidermal growth factor receptor (Homo sapiens, UniProt P00533); experiment: Inhibition of wild type EGFR domain (unknown origin) expressed in baculovirus expression system using Poly(Glu:Tyr)4:1 substrate after 60 mins by ELISA
T1 sequence (P00533 whole entry, the tested form may be a part): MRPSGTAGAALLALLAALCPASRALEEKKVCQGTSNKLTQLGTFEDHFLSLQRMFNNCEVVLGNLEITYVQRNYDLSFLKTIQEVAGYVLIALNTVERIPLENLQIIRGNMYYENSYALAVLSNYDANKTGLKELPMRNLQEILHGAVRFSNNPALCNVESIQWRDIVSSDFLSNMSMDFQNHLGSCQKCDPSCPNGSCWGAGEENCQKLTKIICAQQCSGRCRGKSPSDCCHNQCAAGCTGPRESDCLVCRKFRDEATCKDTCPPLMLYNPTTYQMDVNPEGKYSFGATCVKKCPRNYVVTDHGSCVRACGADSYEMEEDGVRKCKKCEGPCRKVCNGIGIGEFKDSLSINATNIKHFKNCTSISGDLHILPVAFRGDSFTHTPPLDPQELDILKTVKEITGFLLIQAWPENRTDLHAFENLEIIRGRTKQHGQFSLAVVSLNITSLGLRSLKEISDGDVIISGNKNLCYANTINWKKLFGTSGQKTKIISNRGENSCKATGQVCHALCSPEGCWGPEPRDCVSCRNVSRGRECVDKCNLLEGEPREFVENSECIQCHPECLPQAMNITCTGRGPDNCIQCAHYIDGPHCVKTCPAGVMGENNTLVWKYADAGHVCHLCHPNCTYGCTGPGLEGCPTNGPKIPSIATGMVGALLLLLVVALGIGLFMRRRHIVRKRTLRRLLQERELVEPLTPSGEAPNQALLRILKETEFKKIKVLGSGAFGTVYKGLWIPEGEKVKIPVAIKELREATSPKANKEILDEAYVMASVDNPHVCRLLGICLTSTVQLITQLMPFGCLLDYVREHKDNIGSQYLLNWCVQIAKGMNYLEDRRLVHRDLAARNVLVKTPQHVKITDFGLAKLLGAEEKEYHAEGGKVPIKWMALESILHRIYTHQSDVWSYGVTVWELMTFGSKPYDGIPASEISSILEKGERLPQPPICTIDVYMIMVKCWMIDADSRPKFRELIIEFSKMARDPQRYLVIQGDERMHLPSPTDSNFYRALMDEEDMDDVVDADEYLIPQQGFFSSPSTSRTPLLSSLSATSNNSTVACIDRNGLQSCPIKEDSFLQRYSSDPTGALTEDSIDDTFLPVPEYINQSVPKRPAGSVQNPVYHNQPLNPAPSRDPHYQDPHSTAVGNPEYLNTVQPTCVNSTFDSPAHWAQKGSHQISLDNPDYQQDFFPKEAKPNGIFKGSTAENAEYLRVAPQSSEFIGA

[3] = tested on: A-431; experiment: Antiproliferative activity against human A431 cells assessed as growth inhibition after 72 hrs by SRB assay; type: functional, cell-based; conditions: A-431, 72 h
[4] = molecular target: Epidermal growth factor receptor (Homo sapiens, UniProt P00533, L858R/T790M); experiment: Inhibition of EGFR T790M/L858R double mutant (unknown origin) expressed in baculovirus expression system using Poly(Glu:Tyr)4:1 substrate after 60 mins by ELISA
Sequence of Epidermal growth factor receptor (Homo sapiens, UniProt P00533, L858R/T790M) (P00533 25-1210 T790M/L858R limits assumed): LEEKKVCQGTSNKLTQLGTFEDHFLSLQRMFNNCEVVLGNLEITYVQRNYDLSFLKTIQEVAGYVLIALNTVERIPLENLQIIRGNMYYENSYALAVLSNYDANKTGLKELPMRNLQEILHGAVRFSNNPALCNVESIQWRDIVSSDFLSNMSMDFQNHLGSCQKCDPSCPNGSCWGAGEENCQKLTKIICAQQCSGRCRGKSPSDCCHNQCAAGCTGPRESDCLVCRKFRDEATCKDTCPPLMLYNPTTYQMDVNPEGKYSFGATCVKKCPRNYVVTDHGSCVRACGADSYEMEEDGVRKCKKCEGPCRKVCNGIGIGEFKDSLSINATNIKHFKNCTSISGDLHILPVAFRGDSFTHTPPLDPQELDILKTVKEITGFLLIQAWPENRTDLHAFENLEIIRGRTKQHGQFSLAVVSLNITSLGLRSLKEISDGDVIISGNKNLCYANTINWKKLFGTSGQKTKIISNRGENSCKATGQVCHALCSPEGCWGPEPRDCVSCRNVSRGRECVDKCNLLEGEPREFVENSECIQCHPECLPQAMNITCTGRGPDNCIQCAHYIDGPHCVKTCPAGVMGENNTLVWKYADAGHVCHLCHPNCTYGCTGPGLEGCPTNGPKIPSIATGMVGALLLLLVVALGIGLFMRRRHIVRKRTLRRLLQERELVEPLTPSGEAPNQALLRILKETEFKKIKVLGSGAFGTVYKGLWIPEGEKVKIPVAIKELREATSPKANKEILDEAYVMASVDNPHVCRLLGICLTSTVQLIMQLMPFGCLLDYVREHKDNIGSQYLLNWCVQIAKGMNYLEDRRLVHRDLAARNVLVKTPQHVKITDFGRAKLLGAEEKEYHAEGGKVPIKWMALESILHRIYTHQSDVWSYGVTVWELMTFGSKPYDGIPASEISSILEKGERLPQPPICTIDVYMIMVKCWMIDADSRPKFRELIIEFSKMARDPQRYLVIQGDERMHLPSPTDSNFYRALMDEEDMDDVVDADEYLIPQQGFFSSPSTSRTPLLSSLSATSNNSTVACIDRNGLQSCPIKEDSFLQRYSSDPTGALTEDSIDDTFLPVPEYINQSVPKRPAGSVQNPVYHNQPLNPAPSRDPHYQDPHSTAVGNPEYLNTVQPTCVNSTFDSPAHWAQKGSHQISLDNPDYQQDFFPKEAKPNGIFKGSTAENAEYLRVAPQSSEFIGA

[5] = molecular target: T1, Epidermal growth factor receptor; experiment: Inhibition of EGF-induced EGFR autophosphorylation in human A431 cells pretreated for 2 hrs followed by EGF challenge by Western blotting analysis; type: cell-based; conditions: A-431
[6] = molecular target: T1, Epidermal growth factor receptor; experiment: Inhibition of EGFR in human A431 cells assessed as inhibition of EGF-induced AKT phosphorylation at 0.1 to 1 umol/L pretreated for 2 hrs followed by EGF challenge by Western blotting analysis; type: cell-based; conditions: A-431
[7] = molecular target: T1, Epidermal growth factor receptor; experiment: Inhibition of EGF-induced EGFR autophosphorylation in human A431 cells at 0.1 umol/L pretreated for 2 hrs followed by EGF challenge by Western blotting analysis; type: cell-based; conditions: A-431
[8] = molecular target: T1, Epidermal growth factor receptor; experiment: Inhibition of EGFR in human A431 cells assessed as inhibition of EGF-induced ERK1/2 phosphorylation at 0.1 to 1 umol/L pretreated for 2 hrs followed by EGF challenge by Western blotting analysis; type: cell-based; conditions: A-431
[9] = tested on: Epidermal growth factor receptor (Homo sapiens), P00533 [L858R,T790M]; experiment: Inhibition of EGFR T790M/L858R double mutant in human NCI-H1975 cells assessed as inhibition of EGF-induced AKT phosphorylation pretreated for 2 hrs followed by EGF challenge by Western blotting analysis; type: cell-based
Sequence of Epidermal growth factor receptor (Homo sapiens), P00533 [L858R,T790M] (P00533 whole entry T790M/L858R, looked up): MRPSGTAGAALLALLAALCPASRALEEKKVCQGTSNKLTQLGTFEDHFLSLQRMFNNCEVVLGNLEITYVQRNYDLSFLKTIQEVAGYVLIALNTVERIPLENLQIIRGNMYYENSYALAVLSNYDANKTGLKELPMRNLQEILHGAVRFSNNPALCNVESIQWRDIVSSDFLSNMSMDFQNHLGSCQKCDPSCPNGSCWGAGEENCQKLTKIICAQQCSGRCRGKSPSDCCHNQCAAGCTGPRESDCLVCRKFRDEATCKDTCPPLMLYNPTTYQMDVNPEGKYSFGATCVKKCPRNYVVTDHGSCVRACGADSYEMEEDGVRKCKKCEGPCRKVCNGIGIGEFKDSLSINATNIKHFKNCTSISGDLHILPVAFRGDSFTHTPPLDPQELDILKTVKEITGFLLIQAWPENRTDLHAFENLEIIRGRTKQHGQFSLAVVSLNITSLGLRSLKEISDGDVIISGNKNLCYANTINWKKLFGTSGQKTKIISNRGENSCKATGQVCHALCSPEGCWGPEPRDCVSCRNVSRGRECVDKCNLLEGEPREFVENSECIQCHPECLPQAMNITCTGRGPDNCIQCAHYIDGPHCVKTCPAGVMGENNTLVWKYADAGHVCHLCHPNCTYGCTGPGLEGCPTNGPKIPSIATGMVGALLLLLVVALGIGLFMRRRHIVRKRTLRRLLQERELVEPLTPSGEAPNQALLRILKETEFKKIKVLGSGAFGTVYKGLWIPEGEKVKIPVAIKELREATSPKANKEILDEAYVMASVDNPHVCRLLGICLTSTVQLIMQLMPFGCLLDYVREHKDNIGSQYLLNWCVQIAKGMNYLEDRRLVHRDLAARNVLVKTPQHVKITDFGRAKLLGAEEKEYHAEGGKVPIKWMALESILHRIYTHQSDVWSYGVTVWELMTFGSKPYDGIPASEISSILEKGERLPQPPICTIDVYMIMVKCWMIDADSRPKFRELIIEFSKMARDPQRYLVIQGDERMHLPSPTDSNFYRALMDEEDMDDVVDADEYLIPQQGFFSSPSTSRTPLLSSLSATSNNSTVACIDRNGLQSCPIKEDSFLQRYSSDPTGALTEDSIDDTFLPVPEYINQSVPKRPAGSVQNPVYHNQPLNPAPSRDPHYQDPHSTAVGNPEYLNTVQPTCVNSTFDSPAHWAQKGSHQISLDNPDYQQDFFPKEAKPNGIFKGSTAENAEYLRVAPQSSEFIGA

[10] = tested on: Epidermal growth factor receptor (Homo sapiens), P00533 [L858R,T790M]; experiment: Inhibition of EGFR T790M/L858R double mutant in human NCI-H1975 cells assessed as inhibition of EGF-induced ERK1/2 phosphorylation pretreated for 2 hrs followed by EGF challenge by Western blotting analysis; type: cell-based
[11] = tested on: Epidermal growth factor receptor (Homo sapiens), P00533 [L858R,T790M]; experiment: Inhibition of EGF-induced EGFR T790M/L858R double mutant phosphorylation in human NCI-H1975 cells pretreated for 2 hrs followed by EGF challenge by Western blotting analysis; type: cell-based

Row | SMILES | pIC50 [1] | pIC50 [2] | pIC50 [3] | pIC50 [4] | inhibition [5] | inhibition [6] | inhibition [7] | inhibition [8] | inhibition [9] | inhibition [10] | inhibition [11]
1 | CCN(CC)C/C=C/C(=O)Nc1cc2c(Nc3ccc(F)c(Cl)c3)ncnc2s1 | 4.94 | 8.10 | 6.19 | 7.46 |  |  |  |  |  |  | 
2 | O=C(/C=C/CN1CCC2(CC1)OCCO2)Nc1cc2c(Nc3ccc(F)c(Cl)c3)ncnc2s1 | 5.18 | 8.70 | 6.26 | 7.70 |  |  |  |  |  |  | 
3 | O=C(/C=C/CN1CCCCC1)Nc1cc2c(Nc3ccc(F)c(Cl)c3)ncnc2s1 | 5.19 | 8.05 | 6.89 | 8.70 | Dose-dependent effect | Active | Active | Active | Dose-dependent effect | Dose-dependent effect | Dose-dependent effect
4 | CC(C)N1CCN(C/C=C/C(=O)Nc2cc3c(Nc4ccc(F)c(Cl)c4)ncnc3s2)CC1 | 4.68 | 7.47 | 5.32 | 8.70 |  |  |  |  |  |  | 
5 | CN(C)CCN(C)CC(=O)Nc1cc2c(Nc3ccc(F)c(Cl)c3)ncnc2s1 | 4.76 | 5.37 | 5.80 | < 5.00 |  |  |  |  |  |  | 
6 | O=C(CN1CCN(CCO)CC1)Nc1cc2c(Nc3ccc(F)c(Cl)c3)ncnc2s1 | < 4.00 | 6.11 | 4.99 | < 5.00 |  |  |  |  |  |  | 
7 | C/C=C(\C)C(=O)Nc1cc2c(Nc3ccc(F)c(Cl)c3)ncnc2s1 | < 4.00 | 5.19 | 4.62 | < 5.00 |  |  |  |  |  |  | 
8 | CN(C)CCCC(=O)Nc1cc2c(Nc3ccc(F)c(Cl)c3)ncnc2s1 | 4.53 | 6.10 | 5.46 | 5.74 |  |  |  |  |  |  | 
9 | O=C(/C=C/CN1CC(O)C1)Nc1cc2c(Nc3ccc(F)c(Cl)c3)ncnc2s1 | 5.17 | 7.42 | 5.78 | 6.52 |  |  |  |  |  |  | 
10 | CCN(CC)CCN(C)C/C=C/C(=O)Nc1cc2c(Nc3ccc(F)c(Cl)c3)ncnc2s1 | < 4.00 | 6.86 | 5.37 | 6.45 |  |  |  |  |  |  | 
11 | C=CCOC(=O)Nc1cc2c(Nc3ccc(F)c(Cl)c3)ncnc2s1 | 4.04 |  | 4.58 |  |  |  |  |  |  |  | 
12 | O=C(CCl)Nc1cc2c(Nc3ccc(F)c(Cl)c3)ncnc2s1 | 5.52 | 7.40 | 5.45 | 6.15 |  |  |  |  |  |  | 
13 | O=C(CN1CCC(CCO)CC1)Nc1cc2c(Nc3ccc(F)c(Cl)c3)ncnc2s1 | 4.08 | 6.27 | 5.02 | < 5.00 |  |  |  |  |  |  | 
14 | CN(C)CCCNC/C=C/C(=O)Nc1cc2c(Nc3ccc(F)c(Cl)c3)ncnc2s1 | < 4.00 | 5.92 | 4.60 | 9.15 |  |  |  |  |  |  | 
15 | CN(C)C/C=C/C(=O)Nc1cc2c(Nc3ccc(F)c(Cl)c3)ncnc2s1 | 5.00 | 7.62 | 6.60 | 6.49 |  |  |  |  |  |  | 
16 | O=C(/C=C/CN1CC2(COC2)C1)Nc1cc2c(Nc3ccc(F)c(Cl)c3)ncnc2s1 | 5.26 | 8.15 | 6.07 | 7.37 |  |  |  |  |  |  | 
17 | O=C(/C=C/CN1CCC(F)(F)C1)Nc1cc2c(Nc3ccc(F)c(Cl)c3)ncnc2s1 | 4.80 | 7.55 | 5.43 | 5.76 |  |  |  |  |  |  | 
18 | CCN1CCN(C/C=C/C(=O)Nc2cc3c(Nc4ccc(F)c(Cl)c4)ncnc3s2)CC1 | 4.69 | 7.46 | 5.36 | 8.40 |  |  |  |  |  |  | 
19 | CS(=O)(=O)CCNC/C=C/C(=O)Nc1cc2c(Nc3ccc(F)c(Cl)c3)ncnc2s1 | 4.35 | 8.52 | 4.72 | 7.17 |  |  |  |  |  |  | 
20 | CN1CCN(C/C=C/C(=O)Nc2cc3c(Nc4ccc(F)c(Cl)c4)ncnc3s2)CC1 | 4.46 | 6.91 | 5.35 | 8.52 |  |  |  |  |  |  | 

Row | SMILES | pIC50 [1] | pIC50 [2] | pIC50 [3] | pIC50 [4] | inhibition [5] | inhibition [6] | inhibition [7] | inhibition [8] | inhibition [9] | inhibition [10] | inhibition [11]
21 | COC(CN(C)C/C=C/C(=O)Nc1cc2c(Nc3ccc(F)c(Cl)c3)ncnc2s1)OC | 5.31 | 8.70 | 6.37 | 7.21 |  |  |  |  |  |  | 
22 | COC(=O)CCCC(=O)Nc1cc2c(Nc3ccc(F)c(Cl)c3)ncnc2s1 | < 4.00 | < 5.00 | 4.56 | < 5.00 |  |  |  |  |  |  | 
23 | O=C(/C=C/CN1CCS(=O)(=O)CC1)Nc1cc2c(Nc3ccc(F)c(Cl)c3)ncnc2s1 | 4.12 | 7.54 | 5.06 | 8.15 |  |  |  |  |  |  | 
24 | CN(C)CCCN(C)C/C=C/C(=O)Nc1cc2c(Nc3ccc(F)c(Cl)c3)ncnc2s1 | < 4.00 | 7.03 | 5.47 | 5.98 |  |  |  |  |  |  | 
25 | CSC1CCN(C/C=C/C(=O)Nc2cc3c(Nc4ccc(F)c(Cl)c4)ncnc3s2)CC1 | 5.28 | 7.74 | 5.95 | 7.59 |  |  |  |  |  |  | 
26 | O=C(Nc1cc2c(Nc3ccc(F)c(Cl)c3)ncnc2s1)C1CCCC1 | 4.41 | < 5.00 | 4.83 | < 5.00 |  |  |  |  |  |  | 
27 | O=C(/C=C/CNCc1ncccn1)Nc1cc2c(Nc3ccc(F)c(Cl)c3)ncnc2s1 | 4.28 | 8.10 | 5.49 | 7.26 |  |  |  |  |  |  | 
28 | O=C(/C=C/CN1CCC(F)(F)CC1)Nc1cc2c(Nc3ccc(F)c(Cl)c3)ncnc2s1 | 5.29 | 8.15 | 5.92 | 8.40 | Dose-dependent effect | Active | Active | Active | Dose-dependent effect | Dose-dependent effect | Dose-dependent effect
29 | CN1CCN(CC(=O)Nc2cc3c(Nc4ccc(F)c(Cl)c4)ncnc3s2)CC1 | 4.67 | 5.47 | 5.77 | < 5.00 |  |  |  |  |  |  | 
30 | O=C(/C=C/CNCC1COC1)Nc1cc2c(Nc3ccc(F)c(Cl)c3)ncnc2s1 | 4.21 | 8.00 | 5.41 | 7.66 |  |  |  |  |  |  | 
31 | O=C(/C=C/CN1CCOCC1)Nc1cc2c(Nc3ccc(F)c(Cl)c3)ncnc2s1 | 4.93 | 8.52 | 5.66 | 8.52 | Dose-dependent effect | Active | Active | Active | Dose-dependent effect | Dose-dependent effect | Dose-dependent effect
32 | O=C(/C=C/CN1CCC(F)CC1)Nc1cc2c(Nc3ccc(F)c(Cl)c3)ncnc2s1 | 4.97 |  | 5.62 |  |  |  |  |  |  |  | 
33 | COC(=O)CC(=O)Nc1cc2c(Nc3ccc(F)c(Cl)c3)ncnc2s1 | < 4.00 | 5.30 | 4.67 | < 5.00 |  |  |  |  |  |  | 
34 | CCC(CC)C(=O)Nc1cc2c(Nc3ccc(F)c(Cl)c3)ncnc2s1 | < 4.00 | < 5.00 | 4.64 | < 5.00 |  |  |  |  |  |  | 
35 | CN(C)CCCN(C)CC(=O)Nc1cc2c(Nc3ccc(F)c(Cl)c3)ncnc2s1 | 4.72 | 5.28 | 5.62 | 5.77 |  |  |  |  |  |  | 
36 | O=C(/C=C/CNC1CCOCC1)Nc1cc2c(Nc3ccc(F)c(Cl)c3)ncnc2s1 | 5.15 | 7.70 | 5.66 | 7.49 |  |  |  |  |  |  | 
37 | COCCNC/C=C/C(=O)Nc1cc2c(Nc3ccc(F)c(Cl)c3)ncnc2s1 | 4.38 | 5.98 | 5.31 | 8.30 |  |  |  |  |  |  | 
38 | CCCCC(=O)Nc1cc2c(Nc3ccc(F)c(Cl)c3)ncnc2s1 | < 4.00 | < 5.00 | 4.85 | < 5.00 |  |  |  |  |  |  | 
39 | O=C(/C=C/CN1CC2(CCOCC2)C1)Nc1cc2c(Nc3ccc(F)c(Cl)c3)ncnc2s1 | 4.41 | 5.67 | 4.87 | 5.65 |  |  |  |  |  |  | 
